IC50 data for seven compounds are collected here from patent US12371454B2, “Cyclic peptide compound having Kras inhibitory action” (priority 2019, dated 2025).

The test system of the test is Human pancreatic cancer cell line AsPC-1. As to the kind of experiment: Measurement of AsPC-1 cell growth inhibition (AsPC-1 CGI). The format is cell-based. To be noted: 96 h. In outline: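 AsPC-1 cells in 15% FBS RPMI-1640 were exposed to test compound for 96 hours at 37° C, with CellTiter-Glo as endpoint.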

pIC50: −log10 of the molar value. Starred links: 1 amine or outer side, 2 acyl side, 3 side chain; linkers in the order of their positions; H or OH if unused. Positions of bridges follow the written chain, without caps; N, C: chain ends. Non-standard residues stand in square brackets, D forms with d. Residues, ends and D or L forms follow the SMILES beside them. *: point of attachment. hPhe(3-Cl-4-CF3) = N[C@@H](CCc1ccc(C(F)(F)F)c(Cl)c1)C(=O)O; hPhe(3-F,4-CF3) = N[C@@H](CCc1ccc(C(F)(F)F)c(F)c1)C(=O)O; NMedβ3hAla = C[C@H](CC(=O)[*:2])N(C)[*:1]; NMeGly(cPent) = CN[C@H](C(=O)O)C1CCCC1; NMeCha = CN[C@@H](CC1CCCCC1)C(=O)O; NMeChg = CN[C@H](C(=O)O)C1CCCCC1; NMeI = CC[C@H](C)[C@H](NC)C(=O)O; d(β3hL) = CC(C)C[C@@H](N)CC(=O)O; NMeD = CN[C@@H](CC(=O)O)C(=O)O; NMeL = CN[C@@H](CC(C)C)C(=O)O; NMeS = CN[C@@H](CO)C(=O)O; Morpholide = C1CN(*)CCO1; NMeA = CN[C@@H](C)C(=O)O; Piperidide = C1CCN(*)CC1; Pyrrolidide = C1CCN(*)C1; Ac5c = NC1(C(=O)O)CCCC1; Aze = O=C(O)[C@@H]1CCN1; CH2CMe2OH = CC(C)(O)C*; Sar = CNCC(=O)O; Propyl = CCC*

For `CC[C@H](C)[C@@H]1NC(=O)[C@H](CC(C)C)N(C)C(=O)C[C@@H](C(=O)N2CCCCC2)N(C)C(=O)[C@H](C2CCCCC2)N(C)C(=O)C2(CCCC2)NC(=O)[C@H](COCC(C)(C)O)N(C)C(=O)[C@H](CCc2ccc(C(F)(F)F)c(Cl)c2)NC(=O)CN(C)C(=O)[C@H](CC2CCCCC2)N(C)C(=O)CN(C)C(=O)CN(C)C1=O` [Compound 789] ([NMeL]I[Sar][Sar][NMeCha][Sar][hPhe(3-Cl-4-CF3)][NMeS](CH2CMe2OH)[Ac5c][NMeChg][NMeD]-Piperidide; lactam N-11), the pIC50 (in general, −log10 of the IC50, conventionally taken in molar units) was 6.30 to 7.00.

Consider `CC[C@H](C)[C@@H]1NC(=O)[C@H](CC(C)C)N(C)C(=O)C[C@@H](C(=O)N2CCOCC2)N(C)C(=O)[C@H]([C@@H](C)CC)N(C)C(=O)C2(CCCC2)NC(=O)[C@@H]2CCCN2C(=O)[C@H](CCc2ccc(C(F)(F)F)c(F)c2)NC(=O)CN(C)C(=O)[C@H](CC2CCCCC2)N(C)C(=O)[C@@H]2CCN2C(=O)[C@H](C)N(C)C1=O` [Compound 790] ([NMeL]I[NMeA][Aze][NMeCha][Sar][hPhe(3-F,4-CF3)]P[Ac5c][NMeI][NMeD]-Morpholide; lactam N-11), for which the pIC50 is 7.30 to 7.70.

As for `CC[C@H](C)[C@@H]1NC(=O)[C@H](CC(C)C)N(C)C(=O)C[C@@H](CC(C)C)NC(=O)[C@H]([C@@H](C)CC)N(C)C(=O)C2(CCCC2)NC(=O)[C@@H]2CCCN2C(=O)[C@H](CCc2ccc(C(F)(F)F)c(Cl)c2)NC(=O)CN(C)C(=O)[C@H](CC2CCCCC2)N(C)C(=O)[C@@H]2CCN2C(=O)[C@H](C)N(C)C1=O` [Compound 798] (cyclo([Ac5c][NMeI][d(β3hL)][NMeL]I[NMeA][Aze][NMeCha][Sar][hPhe(3-Cl-4-CF3)]P)), the pIC50 is 6.30 to 7.00.

`CC[C@H](C)[C@@H]1NC(=O)[C@H](CC(C)C)N(C)C(=O)C[C@@H](C(=O)N2CCCCC2)N(C)C(=O)[C@H]([C@@H](C)CC)N(C)C(=O)C2(CCCC2)NC(=O)[C@@H]2CCCN2C(=O)[C@H](CCc2ccc(C(F)(F)F)c(Cl)c2)NC(=O)CN(C)C(=O)[C@H](C2CCCC2)N(C)C(=O)[C@@H]2CCN2C(=O)[C@H](C)N(C)C1=O` [Compound 807] ([NMeL]I[NMeA][Aze][NMeGly(cPent)][Sar][hPhe(3-Cl-4-CF3)]P[Ac5c][NMeI][NMeD]-Piperidide; lactam N-11) showed a pIC50 of 7.30 to 7.70.

Compound `CCCOC[C@H]1C(=O)N(C)CC(=O)N[C@@H](CCc2ccc(C(F)(F)F)c(F)c2)C(=O)N2CCC[C@H]2C(=O)NC2(CCCC2)C(=O)N(C)[C@@H]([C@@H](C)CC)C(=O)N(C)[C@H](C(=O)N2CCOCC2)CC(=O)N(C)[C@@H](CC(C)C)C(=O)N[C@@H]([C@@H](C)CC)C(=O)N(C)[C@@H](C)C(=O)N2CC[C@H]2C(=O)N1C` [Compound 827] ([NMeL]I[NMeA][Aze][NMeS](Propyl)[Sar][hPhe(3-F,4-CF3)]P[Ac5c][NMeI][NMeD]-Morpholide; lactam N-11) showed a pIC50 of 7.30 to 7.70.

Compound `CC[C@H](C)[C@@H]1NC(=O)[C@H](CC(C)C)N(C)C(=O)C[C@@H](C)N(C)C(=O)[C@H]([C@@H](C)CC)N(C)C(=O)C2(CCCC2)NC(=O)[C@@H]2CCCN2C(=O)[C@H](CCc2ccc(C(F)(F)F)c(F)c2)NC(=O)CN(C)C(=O)[C@H](CC2CCCCC2)N(C)C(=O)[C@@H]2CCN2C(=O)[C@H](C)N(C)C1=O` [Compound 859] (cyclo([Ac5c][NMeI][NMedβ3hAla][NMeL]I[NMeA][Aze][NMeCha][Sar][hPhe(3-F,4-CF3)]P)) had a negative-log IC50 (pIC50) of 7.00 to 7.30.

In turn, `CC[C@H](C)[C@@H]1NC(=O)[C@H](CC(C)C)N(C)C(=O)C[C@@H](C(=O)N2CCCC2)N(C)C(=O)[C@H]([C@@H](C)CC)N(C)C(=O)C2(CCCC2)NC(=O)[C@@H]2CCCN2C(=O)[C@H](CCc2ccc(C(F)(F)F)c(F)c2)NC(=O)CN(C)C(=O)[C@H](CC2CCCCC2)N(C)C(=O)[C@@H]2CCN2C(=O)[C@H](C)N(C)C1=O` [Compound 868] ([NMeL]I[NMeA][Aze][NMeCha][Sar][hPhe(3-F,4-CF3)]P[Ac5c][NMeI][NMeD]-Pyrrolidide; lactam N-11) had a pIC50 of 7.30 to 7.70.
